From patent US10829473B2, “Modulators of the cystic fibrosis transmembrane conductance regulator protein and methods of use” (AbbVie Overseas S.Á.R.L., priority 2017, dated 2020)
Where two headings read alike, the source gives them in different places.

Target: T1, F508delCFTR (Homo sapiens, UniProt P13569, DEL508-508)
T1 construct: expressed in transfected cells; host or cells: CFBE41o- human lung derived epithelial cells (CFBE41o-F508delCFTR-HRP), doxycycline-inducible
Assay: Cell Surface Expression-Horse Radish Peroxidase (CSE-HRP) Assay;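 as to EC50 (with co-corrector): co-corrector chromenyl benzoic acid corrector at 2 or 3 µM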;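 as to Maximum % activity (without co-corrector): % of on-plate positive control chromenyl benzoic acid corrector at 2 or 3 µM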
Assay type: cell-based
Settings: for Maximum % activity (with co-corrector) / Emax: maximum at any tested concentration; for Emax: read-out: Maximum % activity (without co-corrector)
Method in brief: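 Corrector compounds were given as 8-point 3-fold series from 20 or 30 μM, with or without a 2 μM co-corrector, for 18-24 h at 33 °C. Surface HRP was read by luminol luminescence as % of positive control; variable-Hill-slope sigmoidal fitting gave EC50 from triplicate plates.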

[1] = test compound alone, without co-corrector, read-out: EC50 (without co-corrector)
[2] = with co-corrector, read-out: EC50 (with co-corrector)

T1 sequence (P13569 with tags, fused parts or gaps DEL508-508): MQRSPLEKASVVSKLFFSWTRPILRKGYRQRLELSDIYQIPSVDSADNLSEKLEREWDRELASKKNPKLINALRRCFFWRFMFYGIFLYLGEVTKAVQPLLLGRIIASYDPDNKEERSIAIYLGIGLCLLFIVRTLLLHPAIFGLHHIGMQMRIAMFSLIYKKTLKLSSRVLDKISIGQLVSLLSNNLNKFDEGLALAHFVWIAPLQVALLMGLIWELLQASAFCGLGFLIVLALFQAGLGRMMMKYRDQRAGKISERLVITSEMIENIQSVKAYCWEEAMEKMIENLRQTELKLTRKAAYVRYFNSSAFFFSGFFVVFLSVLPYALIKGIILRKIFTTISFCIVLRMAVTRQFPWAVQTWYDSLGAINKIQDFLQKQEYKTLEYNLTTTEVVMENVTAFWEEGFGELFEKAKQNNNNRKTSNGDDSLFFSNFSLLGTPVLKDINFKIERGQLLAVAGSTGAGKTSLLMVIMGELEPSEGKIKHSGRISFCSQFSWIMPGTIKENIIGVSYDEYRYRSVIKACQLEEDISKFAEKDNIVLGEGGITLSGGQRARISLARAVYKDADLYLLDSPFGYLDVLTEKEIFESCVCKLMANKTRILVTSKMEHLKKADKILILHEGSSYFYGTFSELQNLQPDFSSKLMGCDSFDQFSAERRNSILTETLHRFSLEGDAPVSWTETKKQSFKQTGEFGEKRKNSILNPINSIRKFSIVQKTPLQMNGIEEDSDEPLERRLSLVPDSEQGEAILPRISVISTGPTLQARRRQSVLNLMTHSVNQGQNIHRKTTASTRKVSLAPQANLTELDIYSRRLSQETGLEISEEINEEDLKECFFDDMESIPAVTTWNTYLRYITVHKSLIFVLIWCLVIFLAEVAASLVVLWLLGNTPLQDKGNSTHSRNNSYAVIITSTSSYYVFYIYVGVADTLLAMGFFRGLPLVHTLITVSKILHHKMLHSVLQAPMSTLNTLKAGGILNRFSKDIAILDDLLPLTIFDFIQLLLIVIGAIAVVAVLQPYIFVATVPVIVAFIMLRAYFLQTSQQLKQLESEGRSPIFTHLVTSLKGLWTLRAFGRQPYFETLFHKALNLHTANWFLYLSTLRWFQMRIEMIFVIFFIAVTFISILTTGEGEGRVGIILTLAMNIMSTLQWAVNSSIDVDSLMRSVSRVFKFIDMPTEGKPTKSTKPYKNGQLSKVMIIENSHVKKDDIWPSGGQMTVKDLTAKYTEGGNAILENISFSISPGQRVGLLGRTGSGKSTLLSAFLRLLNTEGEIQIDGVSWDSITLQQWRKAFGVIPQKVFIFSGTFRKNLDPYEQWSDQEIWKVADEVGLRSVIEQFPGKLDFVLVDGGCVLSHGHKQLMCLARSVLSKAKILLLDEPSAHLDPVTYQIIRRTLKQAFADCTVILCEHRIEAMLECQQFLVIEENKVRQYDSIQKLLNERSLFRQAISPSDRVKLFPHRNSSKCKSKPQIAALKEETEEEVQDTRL

Row | Compound | EC50 [1] | Maximum % activity (with co-corrector) (with co-corrector) | EC50 [2] | Emax (without co-corrector)
1 | COc1ccc(C2CCC2)cc1C1(C(=O)NS(=O)(=O)c2cccn3nccc23)CCC1 [Example I-23, 1-(5-cyclobutyl-2-methoxyphenyl)-N-(pyrazolo[1,5-a]pyridine-4-sulfonyl)cyclobutane-1-carboxamide] | 3 to 10 µM | +++ (≥350) | < 3 µM | > 150%
2 | COc1ccc(C2CCC2)cc1C1(C(=O)NS(=O)(=O)c2cccc3ncn(C)c23)CCC1 [Example I-24, 1-(5-cyclobutyl-2-methoxyphenyl)-N-(1-methyl-1H-benzimidazole-7-sulfonyl)cyclobutane-1-carboxamide] | < 3 µM | +++ (≥350) | < 3 µM | > 150%
3 | COc1ccc(C2CCC2)cc1C1(C(=O)NS(=O)(=O)c2cccc3cnn(C)c23)CCC1 [Example I-25, 1-(5-cyclobutyl-2-methoxyphenyl)-N-(1-methyl-1H-indazole-7-sulfonyl)cyclobutane-1-carboxamide] | < 3 µM | +++ (≥350) | < 3 µM | > 150%
4 | COc1ccc(C2CC2)cc1C1(C(=O)NS(=O)(=O)c2cccc3c2CCCN3)CCC1 [Example I-27, 1-(5-cyclopropyl-2-methoxyphenyl)-N-(1,2,3,4-tetrahydroquinoline-5-sulfonyl)cyclobutane-1-carboxamide] | 3 to 10 µM | +++ (≥350) | < 3 µM | > 150%
5 | COc1ccc(OC)c(C2(C(=O)NS(=O)(=O)c3cccc4ccccc34)CC2)c1 [Example I-28, 1-(2,5-dimethoxyphenyl)-N-(naphthalene-1-sulfonyl)cyclopropane-1-carboxamide] | < 3 µM | +++ (≥350) | < 3 µM | > 150%
6 | COc1ccc(OC)c(C2(C(=O)NS(=O)(=O)c3cccc4ncccc34)CC2)c1 [Example I-29, 1-(2,5-dimethoxyphenyl)-N-(quinoline-5-sulfonyl)cyclopropane-1-carboxamide] | < 3 µM | +++ (≥350) | < 3 µM | > 150%
7 | CN(C)c1ncc(C(F)(F)F)cc1C1(C(=O)NS(=O)(=O)c2cccc3ccccc23)CC1 [Example I-30, 1-[2-(dimethylamino)-5-(trifluoromethyl)pyridin-3-yl]-N-(naphthalene-1-sulfonyl)cyclopropane-1-carboxamide] | < 3 µM | +++ (≥350) | < 3 µM | > 150%
8 | CCOc1ccc(OC)c(C2(C(=O)NS(=O)(=O)c3cccc4ncccc34)CC2)c1 [Example I-31, 1-(5-ethoxy-2-methoxyphenyl)-N-(quinoline-5-sulfonyl)cyclopropane-1-carboxamide] | < 3 µM | +++ (≥350) | < 3 µM | > 150%
9 | COc1ccc(OC2CCC2)cc1C1(C(=O)NS(=O)(=O)c2cccc3ncccc23)CC1 [Example I-32, 1-[5-(cyclobutyloxy)-2-methoxyphenyl]-N-(quinoline-5-sulfonyl)cyclopropane-1-carboxamide] | < 3 µM | +++ (≥350) | < 3 µM | > 150%
10 | COc1ccc(C2CCC2)cc1C1(C(=O)NS(=O)(=O)c2cccc3nc(C)ccc23)CCC1 [Example I-33, 1-(5-cyclobutyl-2-methoxyphenyl)-N-(2-methylquinoline-5-sulfonyl)cyclobutane-1-carboxamide] | 3 to 10 µM | +++ (≥350) | < 3 µM | > 150%
11 | COc1ccc(C(C)(C)C)cc1C1(C(=O)NS(=O)(=O)c2cccc3ncccc23)CC1 [Example I-34, 1-(5-tert-butyl-2-methoxyphenyl)-N-(quinoline-5-sulfonyl)cyclopropane-1-carboxamide] | < 3 µM | +++ (≥350) | < 3 µM | > 150%
12 | COc1ccc(C(C)C)cc1C1(C(=O)NS(=O)(=O)c2cccc3ncccc23)CC1 [Example I-35, 1-[2-methoxy-5-(propan-2-yl)phenyl]-N-(quinoline-5-sulfonyl)cyclopropane-1-carboxamide] | < 3 µM | +++ (≥350) | < 3 µM | > 150%
13 | COc1cc(F)c(C(C)C)cc1C1(C(=O)NS(=O)(=O)c2cccc3ncccc23)CC1 [Example I-36, 1-[4-fluoro-2-methoxy-5-(propan-2-yl)phenyl]-N-(quinoline-5-sulfonyl)cyclopropane-1-carboxamide] | < 3 µM | +++ (≥350) | < 3 µM | > 150%
14 | COc1ccc(C(F)(F)F)cc1C1(C(=O)NS(=O)(=O)c2cccc3ncccc23)CC1 [Example I-37, 1-[2-methoxy-5-(trifluoromethyl)phenyl]-N-(quinoline-5-sulfonyl)cyclopropane-1-carboxamide] | < 3 µM | +++ (≥350) | < 3 µM | > 150%
15 | COc1ccc(C23CC(C2)C3)cc1C1(C(=O)NS(=O)(=O)c2cccc3ncccc23)CC1 [Example I-38, 1-[5-(bicyclo[1.1.1]pentan-1-yl)-2-methoxyphenyl]-N-(quinoline-5-sulfonyl)cyclopropane-1-carboxamide] | < 3 µM | +++ (≥350) | < 3 µM | > 150%
16 | COc1ccc(C(C)(C)C)cc1C1(C(=O)NS(=O)(=O)c2cccc3c2CCCN3)CC1 [Example I-39, 1-(5-tert-butyl-2-methoxyphenyl)-N-(1,2,3,4-tetrahydroquinoline-5-sulfonyl)cyclopropane-1-carboxamide] | < 3 µM | +++ (≥350) | < 3 µM | > 150%
17 | COc1ccc(C)c(OC)c1C1(C(=O)NS(=O)(=O)c2cccc3ccccc23)CC1 [Example I-40, 1-(2,6-dimethoxy-3-methylphenyl)-N-(naphthalene-1-sulfonyl)cyclopropane-1-carboxamide] | < 3 µM | +++ (≥350) | < 3 µM | > 150%
18 | COc1ccc(C)c(OC)c1C1(C(=O)NS(=O)(=O)c2cccc3ncccc23)CC1 [Example I-41, 1-(2,6-dimethoxy-3-methylphenyl)-N-(quinoline-5-sulfonyl)cyclopropane-1-carboxamide] | < 3 µM | +++ (≥350) | < 3 µM | > 150%
19 | COc1ccc(C)c(OC)c1C1(C(=O)NS(=O)(=O)c2cccc3[nH]ccc23)CC1 [Example I-42, 1-(2,6-dimethoxy-3-methylphenyl)-N-(1H-indole-4-sulfonyl)cyclopropane-1-carboxamide] | < 3 µM | +++ (≥350) | < 3 µM | > 150%
20 | COc1ccc(C)c(OC)c1C1(C(=O)NS(=O)(=O)c2cccc3nc(C)ccc23)CC1 [Example I-43, 1-(2,6-dimethoxy-3-methylphenyl)-N-(2-methylquinoline-5-sulfonyl)cyclopropane-1-carboxamide] | < 3 µM | +++ (≥350) | < 3 µM | > 150%
21 | COc1ccc(C)cc1C1(C(=O)NS(=O)(=O)c2cccc3ncccc23)CC1 [Example I-44, 1-(2-methoxy-5-methylphenyl)-N-(quinoline-5-sulfonyl)cyclopropane-1-carboxamide] | < 3 µM | +++ (≥350) | < 3 µM | > 150%
22 | CCOc1cccc(OC)c1C1(C(=O)NS(=O)(=O)c2cccc3ncccc23)CC1 [Example I-45, 1-(2-ethoxy-6-methoxyphenyl)-N-(quinoline-5-sulfonyl)cyclopropane-1-carboxamide] | < 3 µM | +++ (≥350) | < 3 µM | > 150%
23 | COc1cccc(OCC2CC2)c1C1(C(=O)NS(=O)(=O)c2cccc3ncccc23)CC1 [Example I-46, 1-[2-(cyclopropylmethoxy)-6-methoxyphenyl]-N-(quinoline-5-sulfonyl)cyclopropane-1-carboxamide] | < 3 µM | +++ (≥350) | < 3 µM | > 150%
24 | COc1ccc(C)c(C)c1C1(C(=O)NS(=O)(=O)c2cccc3ncccc23)CC1 [Example I-47, 1-(6-methoxy-2,3-dimethylphenyl)-N-(quinoline-5-sulfonyl)cyclopropane-1-carboxamide] | < 3 µM | +++ (≥350) | < 3 µM | > 150%
25 | COc1ccc(C2CC2)c(C)c1C1(C(=O)NS(=O)(=O)c2cccc3ncccc23)CC1 [Example I-48, 1-(3-cyclopropyl-6-methoxy-2-methylphenyl)-N-(quinoline-5-sulfonyl)cyclopropane-1-carboxamide] | < 3 µM | +++ (≥350) | < 3 µM | > 150%
26 | COc1ccc(C)cc1C1(C(=O)NS(=O)(=O)c2cccc3[nH]ccc23)CC1 [Example I-49, N-(1H-indole-4-sulfonyl)-1-(2-methoxy-5-methylphenyl)cyclopropane-1-carboxamide] | < 3 µM | +++ (≥350) | < 3 µM | > 150%
27 | COc1cccc(C(C)C)c1C1(C(=O)NS(=O)(=O)c2cccc3ncccc23)CC1 [Example I-50, 1-[2-methoxy-6-(propan-2-yl)phenyl]-N-(quinoline-5-sulfonyl)cyclopropane-1-carboxamide] | < 3 µM | +++ (≥350) | < 3 µM | > 150%
